According to US10633394B2, “Heterocyclic derivatives and use thereof” (C & C RESEARCH LABORATORIES, priority 2014, dated 2020):

Experiments:
Assay type in all cases: cell-based
MDA-MB-468 = assay: Cell growth inhibition assay (CellTiter-Glo), breast cancer cell line MDA-MB-468; conditions: Homo sapiens; MDA-MB-468 cells, 96 hours
Description: (§1) The inhibitory effects of the compounds of the present invention against the growth of cancer cells were evaluated as shown below. The cancer cell lines including stomach cancer cell line (NCI-N87) and breast cancer cell line (MDA-MB-468) were cultured under the protocol provided by each supplier. Each type of cells to be used in experiments was sub-cultured in a 96-well plate by counting the exact number of cells using Tali™ Image-based Cytometer (Life Technologies). In a 96-well plate, NCI-N87 was employed with 5,000 cells/well; and MDA-MB-468 was employed with 10,000 cells/well. The cells were treated with the compounds listed in Examples which were diluted in various concentrations. Upon completion of the compounds treatment, NCI-N87 cells were cultured at 37° C. under 5% CO2 for 96 hours, and MDA-MB-468 cells were cultured at 37° C. in air for 96 hours. Subsequently, the cells were observed under microscope and drug precipitation and particular findings were investigated and recorded. And then, the 96-well plate was placed at room temperature for 30 minutes, added with 20 μL/well of CellTiter-Glo solution (Cat No. G7573, Promega) and shaken for 10 minutes, followed by being subjected to the measurement using PHERAstar™ microplate reader (BMG LABTECH) according to the supplier's general luminometer protocol. Wells where only culture liquid added without cell plating were used as a negative control, whereas wells where culture liquid containing 0.1% DMSO instead of the compounds listed in Examples were used as a positive control.

STAT3 = target: T1, STAT3 (Homo sapiens, UniProt P40763); assay: STAT3 reporter gene (luciferase) assay in LNCaP stable cell line stimulated with IL-6; conditions: LNCaP stable cell line (pSTAT3-TA-luc), IL-6 10 ng/mL, 24 hours
T1 construct: plasmid pSTAT3-TA-luc), which contains a stably operating STAT3 promoter; endogenous in cells
Description: 1-1) Experiment on the Inhibition of STAT3 Activity
A human prostate cancer cell line (LNCaP stable cell line; plasmid pSTAT3-TA-luc), which contains a stably operating STAT3 promoter, was cultured in RPMI1640 medium (Cat No. 11875, Life Technologies) containing 10% fetal bovine serum (FBS) (Cat No. SH30396, Thermo Scientific) and 150 μg/mL G-418 solution (Cat No. 04 727 894 001, Roche). The reporter gene assay using LNCaP stable cell line was performed in RPMI1640 medium containing 3% DCC-FBS without G-418 solution. LNCaP stable cells were plated in two (2) white 96-well plates with 30,000 cells/50 μL in each well. The cells were cultured at 37° C., under 5% CO2 for 24 hours, and then treated with the compounds listed in Examples which were diluted in various concentrations. Subsequently, IL-6 was added to each well with a final concentration of 10 ng/mL. Upon completion of the treatment with the compounds and IL-6, the cells were cultured at 37° C., under 5% CO2 for 24 hours. The plates were observed under microscope and drug precipitation and particular findings were investigated and recorded.
The luciferase assay and the cell viability assay were performed respectively with one of the two plates. For the luciferase assay, the liquid media in the 96-well plate was removed, and then, 20 μL of passive cell lysis buffer was added to each well. After shaking the plate for 30 minutes, luciferase activities of each well were measured in a PHERAstar™ microplate reader (BMG LABTECH) using a luciferase assay system (Cat No. E1501, Promega). For the cell viability assay, the 96-well plate was placed at room temperature for 30 minutes, added with 20 μL/well of CellTiter-Glo solution (Cat No. G7573, Promega), and shaken for 10 minutes in order to measure cytotoxicity caused by the compounds listed in Examples with a PHERAstar™ microplate reader (BMG LABTECH). Wells without 0.1% DMSO and stimulation were used as a negative control and wells with 0.1% DMSO and stimulation were used as a positive control.
The results of evaluation on the inhibitory effect of the compounds listed in the Examples on the dimerization of STAT3 and STAT1 obtained via the STAT3 and STAT1 reporter gene assays are shown in Table 6 below.

NCI-N87 = assay: Cell growth inhibition assay (CellTiter-Glo), stomach cancer cell line NCI-N87; conditions: Homo sapiens; NCI-N87 cells, 96 hours
Description: as §1

T1 sequence (P40763 whole entry): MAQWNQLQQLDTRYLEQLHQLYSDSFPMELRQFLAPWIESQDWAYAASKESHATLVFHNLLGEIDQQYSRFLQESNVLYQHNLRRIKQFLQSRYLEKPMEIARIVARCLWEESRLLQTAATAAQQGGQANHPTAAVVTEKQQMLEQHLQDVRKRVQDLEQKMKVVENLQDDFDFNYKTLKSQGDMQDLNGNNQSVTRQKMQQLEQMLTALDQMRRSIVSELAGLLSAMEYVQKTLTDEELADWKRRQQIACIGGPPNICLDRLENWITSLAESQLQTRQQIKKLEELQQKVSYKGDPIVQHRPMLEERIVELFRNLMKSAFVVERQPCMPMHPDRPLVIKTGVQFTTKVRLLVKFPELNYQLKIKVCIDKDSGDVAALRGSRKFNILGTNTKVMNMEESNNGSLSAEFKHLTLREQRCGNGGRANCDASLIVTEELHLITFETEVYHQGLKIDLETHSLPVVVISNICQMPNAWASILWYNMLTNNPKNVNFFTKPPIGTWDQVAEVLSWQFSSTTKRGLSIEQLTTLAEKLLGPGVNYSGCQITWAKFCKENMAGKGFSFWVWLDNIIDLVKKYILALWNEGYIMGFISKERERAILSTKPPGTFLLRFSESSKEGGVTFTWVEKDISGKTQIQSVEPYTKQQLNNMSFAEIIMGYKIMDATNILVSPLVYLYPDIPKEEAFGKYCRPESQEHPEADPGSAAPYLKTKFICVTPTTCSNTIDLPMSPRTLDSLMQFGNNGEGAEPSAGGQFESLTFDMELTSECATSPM

SMILES | IC50 (MDA-MB-468) | IC50 (STAT3) | IC50 (NCI-N87)
CS(=O)(=O)C1CCOc2cc3sc(C(=O)Nc4cc(Cl)nc(Oc5ccccc5OC(F)(F)F)c4)cc3cc21 (stereo not drawn) [Example 40, N-(2-chloro-6-(2-(trifluoromethoxy)phenoxy)pyridin-4-yl)-4-(methylsulfonyl)-3,4-dihydro-2H-thieno[3,2-g]chromene-7-carboxamide] | 0.0086 µM | 0.0087 µM | 0.023 µM
Cc1cccc(Oc2cc(NC(=O)c3cc4cc5c(cc4s3)OCCC5S(C)(=O)=O)cc(Cl)n2)c1F (stereo not drawn) [Example 41, N-(2-chloro-6-(2-fluoro-3-methylphenoxy)pyridin-4-yl)-4-(methylsulfonyl)-3,4-dihydro-2H-thieno[3,2-g]chromene-7-carboxamide] | 0.012 µM | 0.011 µM | 0.021 µM
COc1cc(Cl)ccc1Oc1cc(NC(=O)c2cc3cc4c(cc3s2)OCCC4S(C)(=O)=O)cc(Cl)n1 (stereo not drawn) [Example 42, N-(2-chloro-6-(4-chloro-2-methoxyphenoxy)pyridin-4-yl)-4-(methylsulfonyl)-3,4-dihydro-2H-thieno[3,2-g]chromene-7-carboxamide] | 0.0078 µM | 0.023 µM | 0.024 µM
CS(=O)(=O)[C@H]1CCOc2cc3sc(C(=O)Nc4cc(Cl)nc(Oc5ccc(Cl)cc5)c4)cc3cc21 [Example 43, (S)—N-(2-chloro-6-(4-chlorophenoxy)pyridin-4-yl)-4-(methylsulfonyl)-3,4-dihydro-2H-thieno[3,2-g]chromene-7-carboxamide] | 0.0029 µM | 0.018 µM | 0.015 µM
CS(=O)(=O)[C@@H]1CCOc2cc3sc(C(=O)Nc4cc(Cl)nc(Oc5ccc(Cl)cc5)c4)cc3cc21 [Example 44, (R)—N-(2-chloro-6-(4-chlorophenoxy)pyridin-4-yl)-4-(methylsulfonyl)-3,4-dihydro-2H-thieno[3,2-g]chromene-7-carboxamide] | 0.086 µM | 1.5 µM | 1.8 µM
CS(=O)(=O)[C@@]1(F)CCOc2cc3sc(C(=O)Nc4cc(Cl)nc(Oc5ccc(Cl)cc5)c4)cc3cc21 [Example 45, (S)—N-(2-chloro-6-(4-chlorophenoxy)pyridin-4-yl)-4-fluoro-4-(methylsulfonyl)-3,4-dihydro-2H-thieno[3,2-g]chromene-7-carboxamide] | 0.0025 µM | 0.0039 µM | 0.0056 µM
CS(=O)(=O)[C@]1(F)CCOc2cc3sc(C(=O)Nc4cc(Cl)nc(Oc5ccc(Cl)cc5)c4)cc3cc21 [Example 46, (R)—N-(2-chloro-6-(4-chlorophenoxy)pyridin-4-yl)-4-fluoro-4-(methylsulfonyl)-3,4-dihydro-2H-thieno[3,2-g]chromene-7-carboxamide] | > 0.1 µM | 0.14 µM | 0.56 µM
C[C@]1(S(C)(=O)=O)CCOc2cc3sc(C(=O)Nc4cc(Cl)nc(Oc5ccc(Cl)cc5)c4)cc3cc21 [Example 47, (S)—N-(2-chloro-6-(4-chlorophenoxy)pyridin-4-yl)-4-methyl-4-(methylsulfonyl)-3,4-dihydro-2H-thieno[3,2-g]chromene-7-carboxamide] | 0.0017 µM | 0.0045 µM | 0.0064 µM
C[C@@]1(S(C)(=O)=O)CCOc2cc3sc(C(=O)Nc4cc(Cl)nc(Oc5ccc(Cl)cc5)c4)cc3cc21 [Example 48, (R)—N-(2-chloro-6-(4-chlorophenoxy)pyridin-4-yl)-4-methyl-4-(methylsulfonyl)-3,4-dihydro-2H-thieno[3,2-g]chromene-7-carboxamide] | > 0.1 µM | 0.15 µM | 0.79 µM
COc1cc(Cl)cc(Oc2cc(NC(=O)c3cc4cc5c(cc4s3)OCC[C@@H]5S(C)(=O)=O)cc(Cl)n2)c1 [Example 49, (S)—N-(2-chloro-6-(3-chloro-5-methoxyphenoxy)pyridin-4-yl)-4-(methylsulfonyl)-3,4-dihydro-2H-thieno[3,2-g]chromene-7-carboxamide] | 0.0059 µM | 0.0066 µM | 0.018 µM
CS(=O)(=O)C1CCC(=O)c2cc3sc(C(=O)Nc4cc(Cl)nc(Oc5ccc(Cl)cc5)c4)cc3cc21 (stereo not drawn) [Example 51, N-(2-chloro-6-(4-chlorophenoxy)pyridin-4-yl)-5-(methylsulfonyl)-8-oxo-5,6,7,8-tetrahydronaphtho[2,3-b]thiophene-2-carboxamide] | 0.05 µM | 0.1 µM | 0.2 µM
O=C(Nc1cc(Cl)nc(Oc2ccc(Cl)cc2)c1)c1cc2cc3c(cc2s1)OCCC3n1cccn1 (stereo not drawn) [Example 52, N-(2-chloro-6-(4-chlorophenoxy)pyridin-4-yl)-4-(1H-pyrazol-1-yl)-3,4-dihydro-2H-thieno[3,2-g]chromene-7-carboxamide] | 0.12 µM | 0.1 µM | 0.4 µM
O=C(Nc1cc(Cl)nc(Oc2ccc(Cl)cc2)c1)c1cc2cc3c(cc2s1)OCCC3N1CCCC1=O (stereo not drawn) [Example 53, N-(2-chloro-6-(4-chlorophenoxy)pyridin-4-yl)-4-(2-oxopyrrolidin-1-yl)-3,4-dihydro-2H-thieno[3,2-g]chromene-7-carboxamide] | 0.71 µM | 5.2 µM | 4.4 µM
N#CC1CCOc2cc3sc(C(=O)Nc4cc(Cl)nc(Oc5ccc(Cl)cc5)c4)cc3cc21 (stereo not drawn) [Example 54, N-(2-chloro-6-(4-chlorophenoxy)pyridin-4-yl)-4-cyano-3,4-dihydro-2H-thieno[3,2-g]chromene-7-carboxamide] | 0.075 µM | 0.18 µM | 0.32 µM
[N-]=[N+]=NC1CCOc2cc3sc(C(=O)Nc4cc(Cl)nc(Oc5ccc(Cl)cc5)c4)cc3cc21 (stereo not drawn) [Example 55, 4-azido-N-(2-chloro-6-(4-chlorophenoxy)pyridin-4-yl)-3,4-dihydro-2H-thieno[3,2-g]chromene-7-carboxamide] | 0.078 µM | 0.039 µM | 1.2 µM
